Experimental findings from US20110071150A1 (priority 2009, published 2011) are described below.

This test concerns Jurkat IL-2 Production. Kind of test: Jurkat IL-2 Production Assay. The conditions noted are these: Homo sapiens, Jurkat cell (ATCC), 18-20 h incubation, PHA 5 μg/mL with 1% FBS, or PMA/Ionomycin with 30% FBS (table does not say which). Format: cell-based. An outline of the steps:
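Jurkat cells were exposed to compound (0.25% DMSO final) for 10 min, then stimulated for 18–20 h at 37 °C. The 1% FBS condition used 5 μg/mL PHA; the high-serum condition (30% FBS) used 50 ng/mL PMA plus 500 ng/mL ionomycin. IC50 was derived from IL-2 production.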

Compound `Cc1sc(I)nc1-c1ccc2[nH]c(-c3c(F)cccc3F)cc2c1` [Example 106, 2-(2,6-Difluoro-phenyl)-5-(2-iodo-5-methyl-thiazol-4-yl)-1H-indole] returned an IC50 of 488 nM.
In the case of `Cn1nc(-c2cc[nH]n2)cc1-c1ccc2[nH]c(-c3c(F)cccc3F)cc2c1` [Example 108, 2-(2,6-Difluoro-phenyl)-5-(1-methyl-1H,1′H-[3,3]bipyrazolyl-5-yl)-1H-indole], inhibition was half-maximal at 601 nM (IC50).
As to `Cn1nc(-c2ncco2)cc1-c1ccc2[nH]c(-c3c(F)cccc3F)cc2c1` [Example 110, 2-(2,6-Difluoro-phenyl)-5-(2-methyl-5-oxazol-2-yl-2H-pyrazol-3-yl)-1H-indole], the IC50 worked out at 190 nM.
The result for `Cn1nc(Br)cc1-c1ccc2[nH]c(-c3c(F)cccc3F)cc2c1` [Example 111, 5-(5-Bromo-2-methyl-2H-pyrazol-3-yl)-2-(2,6-difluoro-phenyl)-1H-indole] reads 318 nM; that for `COc1cc(C)c(-c2ccc3[nH]c(-c4ccccc4F)cc3c2)cn1` [Example 112, 2-(2-Fluoro-phenyl)-5-(6-methoxy-4-methyl-pyridin-3-yl)-1H-indole], 843 nM; that for `COc1cc(C)c(-c2ccc3[nH]c(-c4c(F)cccc4F)cc3c2)cn1` [Example 113, 2-(2,6-Difluoro-phenyl)-5-(6-methoxy-4-methyl-pyridin-3-yl)-1H-indole], 60 nM.
Turning to `Cn1nc(-c2cccnc2)nc1-c1ccc2[nH]c(-c3c(F)cccc3F)cc2c1` [Example 114, 2-(2,6-Difluoro-phenyl)-5-(2-methyl-5-pyridin-3-yl-2H-[1,2,4]triazol-3-yl)-1H-indole], half-maximal inhibition (IC50) required 39 nM.
The result for `Cc1cc(-c2nnco2)ccc1-c1ccc2[nH]c(-c3c(F)cccc3Cl)cc2c1` [Example 115, 2-(2-Chloro-6-fluoro-phenyl)-5-(2-methyl-4-[1,3,4]oxadiazol-2-yl-phenyl)-1H-indole] reads 38 nM.
As to `Cn1nc(-c2cccnc2)nc1-c1ccc2[nH]c(-c3c(F)cccc3Cl)cc2c1` [Example 116, 2-(2-Chloro-6-fluoro-phenyl)-5-(2-methyl-5-pyridin-3-yl-2H-[1,2,4]-triazol-3-yl)-1H-indole], inhibition was half-maximal at 12 nM (IC50).
On to `COC(=O)c1cc(C)c(-c2ccc3[nH]c(-c4c(F)cccc4Cl)cc3c2)cn1` [Example 117, 5-[2-(2-Chloro-6-fluoro-phenyl)-1H-indol-5-yl]-4-methyl-pyridine-2-carboxylic acid methyl ester], for which half-maximal inhibition (IC50) was put at 19 nM.
`CNC(=O)c1cc(C)c(-c2ccc3[nH]c(-c4c(F)cccc4Cl)cc3c2)cn1` [Example 118, 5-[2-(2-Chloro-6-fluoro-phenyl)-1H-indol-5-yl]-4-methyl-pyridine-2-carboxylic acid methylamide] came in with an IC50 of 180 nM.
In the case of `Cc1cc(-c2nnco2)ncc1-c1ccc2[nH]c(-c3c(F)cccc3Cl)cc2c1` [Example 119, 2-(2-Chloro-6-fluoro-phenyl)-5-(4-methyl-6-[1,3,4]oxadiazol-2-yl-pyridin-3-yl)-1H-indole], the IC50 is 14 nM.
The result for `Cc1nnc(-c2cc(C)c(-c3ccc4[nH]c(-c5c(F)cccc5Cl)cc4c3)cn2)o1` [Example 120, 2-(2-Chloro-6-fluoro-phenyl)-5-[4-methyl-6-(5-methyl-[1,3,4]oxadiazol-2-yl)-pyridin-3-yl]-1H-indole] reads 19 nM; that for `COc1cc(C)c(-c2ccc3[nH]c(-c4c(F)cccc4Cl)cc3c2)cn1` [Example 121, 2-(2-Chloro-6-fluoro-phenyl)-5-(6-methoxy-4-methyl-pyridin-3-yl)-1H-indole], 12 nM; that for `COc1cnc(-c2ccc3[nH]c(-c4c(F)cccc4Cl)cc3c2)c(C)c1` [Example 122, 2-(2-Chloro-6-fluoro-phenyl)-5-(5-methoxy-3-methyl-pyridin-2-yl)-1H-indole], 260 nM.
As for `COc1ccc(-c2ccc3[nH]c(-c4c(F)cccc4Cl)cc3c2)c(C)n1` [Example 123, 2-(2-Chloro-6-fluoro-phenyl)-5-(6-methoxy-2-methyl-pyridin-3-yl)-1H-indole], 448 nM corresponded to half-maximal inhibition (IC50).
The result for `CCn1nc(-c2cccnc2)nc1-c1ccc2[nH]c(-c3c(F)cccc3Cl)cc2c1` [Example 124, 2-(2-Chloro-6-fluoro-phenyl)-5-(2-ethyl-5-pyridin-3-yl-2H-[1,2,4]triazol-3-yl)-1H-indole] reads 11 nM.
For the compound `Cc1sc(-c2ncco2)nc1-c1ccc2[nH]c(-c3c(F)cccc3Cl)cc2c1` [Example 125, 2-(2-Chloro-6-fluoro-phenyl)-5-(5-methyl-2-oxazol-2-yl-thiazol-4-yl)-1H-indole], the midpoint of inhibition, the IC50, lay at 49 nM.
The result for `COC(=O)c1ccc(-c2ccc3[nH]c(-c4ccccc4Cl)cc3c2)c(C)c1` [Example 126] reads 106 nM; that for `CNC(=O)c1ccc(-c2ccc3[nH]c(-c4ccccc4Cl)cc3c2)c(C)c1` [Example 127, 4-[2-(2-Chloro-phenyl)-1H-indol-5-yl]-3,N-dimethyl-benzamide], 991 nM; that for `Cc1cc(C(N)=O)ccc1-c1ccc2[nH]c(-c3ccccc3Cl)cc2c1` [Example 128, 4-[2-(2-Chloro-phenyl)-1H-indol-5-yl]-3-methyl-benzamide], 776 nM.
Next, `Cc1cc(C#N)ccc1-c1ccc2[nH]c(-c3ccccc3Cl)cc2c1` [Example 129, 4-[2-(2-Chloro-phenyl)-1H-indol-5-yl]-3-methyl-benzonitrile]: 237 nM.
`Cc1cc(S(=O)(=O)N(C)C)ccc1-c1ccc2[nH]c(-c3ccccc3Cl)cc2c1` [Example 130, 4-[2-(2-Chloro-phenyl)-1H-indol-5-yl]-3,N,N-trimethyl-benzenesulfonamide] gave an IC50 of 16 nM.
Compound `COC(=O)c1ccc(-c2ccc3[nH]c(-c4ccc(C(=O)OC)cc4C)cc3c2)c(C)c1` [Example 131, 4-[5-(4-carbomethoxy-2-methyl-phenyl)-1H-indol-2-yl]-3-methyl-benzoic acid methyl ester] showed an IC50 of 149 nM. Against the preceding compound, the IC50 is about 9.3-fold higher.
Next, `COc1ccc(-c2cc3cc(-c4ccc(C#N)cc4C)ccc3[nH]2)c(Cl)c1` [Example 132, 4-[2-(2-Chloro-4-methoxy-phenyl)-1H-indol-5-yl]-3-methyl-benzonitrile]: 319 nM.
As to `Cc1cc(C#N)ccc1-c1ccc2[nH]c(-c3ccc(S(C)(=O)=O)cc3F)cc2c1` [Example 133, 4-[2-(2-Fluoro-4-methanesulfonyl-phenyl)-1H-indol-5-yl]-3-methyl-benzonitrile], it took 976 nM to reach half-maximal inhibition (IC50).
Next, `Cc1cc(C#N)ccc1-c1ccc2[nH]c(-c3cccc(C#N)c3F)cc2c1` [Example 134, 4-[2-(2-Fluoro-3-cyano-phenyl)-1H-indol-5-yl]-3-methyl-benzonitrile]: 163 nM; `COc1cc(F)c(-c2cc3cc(-c4ccc(C#N)cc4C)ccc3[nH]2)c(F)c1` [Example 135, 4-(2-(2,6-difluoro-4-methoxyphenyl)-1H-indol-5-yl)-3-methylbenzonitrile]: 283 nM.
Next, `Cc1cc(C#N)ccc1-c1ccc2[nH]c(-c3ccccc3F)cc2c1` [Example 136, 4-(2-(2-fluorophenyl)-1H-indol-5-yl)-3-methylbenzonitrile]: 370 nM; `Cc1cc(C#N)ccc1-c1ccc2[nH]c(-c3ccc(C#N)cc3C)cc2c1` [Example 137, 4-(2-(4-Cyano-2-methylphenyl)-1H-indol-5-yl)-3-methylbenzonitrile]: 132 nM.

Broadly, the IC50 is the concentration that inhibits the measured activity by half. A high value points to weaker potency.
